Experimental data reported in patent US20250320213A1, “Nitrogen-Containing Heterocyclic Compounds” (Pfizer Inc., priority 2024, published 2025).
pEC50, pIC50: −log10 of the molar value.

Assays:
[1] = test system: CCL17 secretion in peripheral human whole blood; test: Human Whole Blood (HWB) CCL17 TR-FRET Assay (IL-13 stimulated CCL17 secretion); type: cell-based; settings: Homo sapiens, 48 h, inhibition of CCL17 secretion in human whole blood, 10 ng/mL IL13, 48 hours
Description: The IC50 (half-maximal concentration required for inhibition) of compounds for the inhibition of CCL17 secretion in peripheral human whole blood, stimulated through the IL-13-IL-13 receptor/IL-4 receptor pathway was evaluated with a TR-FRET sandwich ELISA CCL17 (TARC) Assay Kit (Bioauxilium).
Test compounds (solubilized and serially diluted in DMSO, in an 11 point, 3-fold dilution series in duplicate) were spotted, 80 nL per well, into a 384 well v-bottom polypropylene plate. Human whole blood was collected from a peripheral vein, 714 units of sodium heparin was added for every 50 mL of blood collected. Sixty μL per well of blood was added to the compound plate. The blood plate was incubated for two hours at 37° C. After two hours, CCL17 production was stimulated with the addition of 20 μL per well of IL13 (R&D Systems) in HBSS with calcium and magnesium, with a final concentration of 10 ng/mL IL13. The plate containing blood, compound, and IL-13 was incubated at 37° C. for 48 hours, to allow for CCL17 production. After 48 hours, the plate was centrifuged at 1,500 revolutions per minute (RPM) for 7 minutes, with no braking. The CCL17 TR-FRET Assay Kit detection reagent was prepared according to kit instructions and 4 μL per well of the antibody cocktail was added to a 384-well white low volume non-binding coated plate (Corning). Sixteen μL of serum from the centrifuged blood plate was transferred to the detection plate containing the TR-FRET antibody cocktail. The plate was centrifuged briefly, then covered and incubated 16 hours at room temperature. The plate was then read on an EnVision 2105 multilabel reader (PerkinElmer) with settings for TR-FRET Ratio=10,000×(fluorescence intensity 665 nm/fluorescence intensity 615 nm).

STAT6 = biological target: T1, STAT6 (Homo sapiens, UniProt P42226); test: STAT6 Reporter Luciferase Assay (IL-13 stimulated HaCaT keratinocyte NanoLuc reporter cells); type: cell-based; settings: STAT6 NanoLuc luciferase reporter, IL-13 stimulated HaCaT keratinocyte cells; read-out: Reporter EC50
T1 construct: stably transfected HaCaT keratinocyte cell line, which expresses NanoLuc luciferase reporter gene under the transcriptional control of the STAT6 responsive promoter; endogenous in cells; host or cells: HaCaT keratinocyte reporter cell line (stably transfected with a NanoLuc reporter)
T1 sequence (P42226 1-847): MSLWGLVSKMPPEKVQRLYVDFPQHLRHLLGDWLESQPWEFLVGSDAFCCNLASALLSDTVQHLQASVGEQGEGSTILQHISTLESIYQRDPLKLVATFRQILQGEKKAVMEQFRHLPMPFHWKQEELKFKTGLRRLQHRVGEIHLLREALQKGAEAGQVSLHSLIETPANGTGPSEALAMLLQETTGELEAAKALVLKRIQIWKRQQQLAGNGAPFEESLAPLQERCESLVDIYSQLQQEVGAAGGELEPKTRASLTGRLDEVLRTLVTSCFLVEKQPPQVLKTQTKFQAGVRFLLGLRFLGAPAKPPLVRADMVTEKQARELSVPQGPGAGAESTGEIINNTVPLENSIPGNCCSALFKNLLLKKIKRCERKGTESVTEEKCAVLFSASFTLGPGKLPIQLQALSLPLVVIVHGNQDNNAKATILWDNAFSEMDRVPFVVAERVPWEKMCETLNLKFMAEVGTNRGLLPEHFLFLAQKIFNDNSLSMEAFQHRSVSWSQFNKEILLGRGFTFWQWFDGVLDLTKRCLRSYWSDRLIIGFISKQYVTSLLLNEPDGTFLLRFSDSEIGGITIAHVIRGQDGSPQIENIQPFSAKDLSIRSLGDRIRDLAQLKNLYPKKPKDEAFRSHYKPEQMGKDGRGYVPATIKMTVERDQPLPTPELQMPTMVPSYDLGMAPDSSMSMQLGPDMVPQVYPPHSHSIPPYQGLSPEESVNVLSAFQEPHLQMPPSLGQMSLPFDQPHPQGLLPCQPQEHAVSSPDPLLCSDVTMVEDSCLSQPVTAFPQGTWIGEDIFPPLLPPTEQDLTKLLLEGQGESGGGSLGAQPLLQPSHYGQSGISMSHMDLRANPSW
Method in brief: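 Luminescence from a NanoLuc reporter driven by the STAT6-responsive IL-13Ra2 promoter in HaCaT keratinocytes serves as the read-out. Compounds are given 2 h before a 4 h stimulation with 0.12 nM IL-13.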

| Compound | pIC50 [1] | pEC50 (STAT6) |
| --- | --- | --- |
| CCC1CN(c2ccc(C(=O)N(C)C)cn2)Cc2c(C(=O)NCc3ccc(NC(=O)N(C)C)cc3)nn(C)c21 (racemic) [Example 77, rac-(R)-5-(5-(Dimethylcarbamoyl)pyridin-2-yl)-N-(4-(3,3-dimethylureido)benzyl)-7-ethyl-1-methyl-4,5,6,7-tetrahydro-1H-pyrazolo[4,3-c]pyridine-3-carboxamide] | 7.35 | 8.40 |
| CC(C)n1nc(C(=O)NCc2ccc(NC(=O)N(C)C)cc2)c2c1CCN(c1ccc(N3CC(CO)OC3=O)cn1)C2 (racemic) [Example 80, rac-(R)-N-(4-(3,3-dimethylureido)benzyl)-5-(5-(5-(hydroxymethyl)-2-oxooxazolidin-3-yl)pyridin-2-yl)-1-isopropyl-4,5,6,7-tetrahydro-1H-pyrazolo[4,3-c]pyridine-3-carboxamide] | < 4.52 | < 5.00 |
| CC(NC(=O)c1nn(C(C)C)c2c1CN(c1ccc(C(=O)N(C)C)cn1)CC2)c1ccc(NC(=O)N(C)C)cc1 (racemic) [Example 81, rac-(R)-5-(5-(dimethylcarbamoyl)pyridin-2-yl)-N-(1-(4-(3,3-dimethylureido)phenyl)ethyl)-1-isopropyl-4,5,6,7-tetrahydro-1H-pyrazolo[4,3-c]pyridine-3-carboxamide] | 6.94 | 7.47 |
| CCC(C)n1nc(C(=O)NCc2ccc(NC(=O)N(C)C)cc2)c2c1CCN(c1ccc(C(=O)N(C)C)cn1)C2 (racemic) [Example 85, rac-(R)-1-(sec-butyl)-5-(5-(dimethylcarbamoyl)pyridin-2-yl)-N-(4-(3,3-dimethylureido)benzyl)-4,5,6,7-tetrahydro-1H-pyrazolo[4,3-c]pyridine-3-carboxamide] | 7.05 | 8.22 |
| CN(C)C(=O)Nc1ccc(CNC(=O)c2nn(C)c3c2[C@H]2CC[C@@H](C3)N2c2ccc(C(=O)N(C)C)cn2)cc1 (racemic) [Example 86, rac-(4R,7S)-9-(5-(dimethylcarbamoyl)pyridin-2-yl)-N-(4-(3,3-dimethylureido)benzyl)-1-methyl-1,4,5,6,7,8-hexahydro-4,7-epiminocyclohepta[c]pyrazole-3-carboxamide] | < 4.52 | < 5.00 |
| CN(C)C(=O)Nc1ccc(CNC(=O)c2nn(C3CCOC3)c3c2CN(c2ccc(C(=O)N(C)C)cn2)CC3)cc1 (racemic) [Example 90, rac-(R)-5-(5-(dimethylcarbamoyl)pyridin-2-yl)-N-(4-(3,3-dimethylureido)benzyl)-1-(tetrahydrofuran-3-yl)-4,5,6,7-tetrahydro-1H-pyrazolo[4,3-c]pyridine-3-carboxamide] | 7.17 | 7.60 |
| COCC(C)n1nc(C(=O)NCc2ccc(NC(=O)N(C)C)cc2)c2c1CCN(c1ccc(C(=O)N(C)C)cn1)C2 (racemic) [Example 92, rac-(R)-5-(5-(dimethylcarbamoyl)pyridin-2-yl)-N-(4-(3,3-dimethylureido)benzyl)-1-(1-methoxypropan-2-yl)-4,5,6,7-tetrahydro-1H-pyrazolo[4,3-c]pyridine-3-carboxamide] | 7.21 | 7.70 |
| CC(C)n1nc(C(=O)NCc2ccc(NC(=O)N(C)C)cc2)c2c1CCN(c1ccc(N3CC(O)CC3=O)cn1)C2 (racemic) [Example 93, rac-(R)-N-(4-(3,3-dimethylureido)benzyl)-5-(5-(4-hydroxy-2-oxopyrrolidin-1-yl)pyridin-2-yl)-1-isopropyl-4,5,6,7-tetrahydro-1H-pyrazolo[4,3-c]pyridine-3-carboxamide] | 5.64 | 6.28 |
| CC1CN(c2ccc(C(=O)N(C)C)cn2)Cc2c(C(=O)NCc3ccc(NC(=O)N(C)C)cc3)nn(C(C)C)c21 (racemic) [Example 95, rac-(R)-5-(5-(dimethylcarbamoyl)pyridin-2-yl)-N-(4-(3,3-dimethylureido)benzyl)-1-isopropyl-7-methyl-4,5,6,7-tetrahydro-1H-pyrazolo[4,3-c]pyridine-3-carboxamide] | 8.22 | 9.00 |
| CC(n1nc(C(=O)NCc2ccc(NC(=O)N(C)C)cc2)c2c1CCN(c1ccc(C(=O)N(C)C)cn1)C2)C(F)(F)F (racemic) [Example 101, rac-(R)-5-(5-(dimethylcarbamoyl)pyridin-2-yl)-N-(4-(3,3-dimethylureido)benzyl)-1-(1,1,1-trifluoropropan-2-yl)-4,5,6,7-tetrahydro-1H-pyrazolo[4,3-c]pyridine-3-carboxamide] | 7.28 | 8.30 |
| CCC1CN(c2ccc(C(=O)N(C)C)cn2)Cc2c(C(=O)NCc3ccc(NC(=O)N(C)C)cc3)nn(CC)c21 (racemic) [Example 115, rac-(R)-5-(5-(dimethylcarbamoyl)pyridin-2-yl)-N-(4-(3,3-dimethylureido)benzyl)-1,7-diethyl-4,5,6,7-tetrahydro-1H-pyrazolo[4,3-c]pyridine-3-carboxamide] | 7.92 | 8.70 |
| CCC1Cc2c(c(C(=O)NCc3ccc(NC(=O)N(C)C)cc3)nn2CC)CN1c1ccc(C(=O)N(C)C)cn1 (racemic) [Example 116, rac-(R)-5-(5-(dimethylcarbamoyl)pyridin-2-yl)-N-(4-(3,3-dimethylureido)benzyl)-1,6-diethyl-4,5,6,7-tetrahydro-1H-pyrazolo[4,3-c]pyridine-3-carboxamide] | 7.21 | 8.00 |
| CC(C)n1nc(C(=O)NCc2ccc(NC(=O)N(C)C)cn2)c2c1C(C(F)(F)F)CN(c1ccc(C(=O)N(C)C)cn1)C2 (racemic) [Example 121, rac-(R)-5-(5-(dimethylcarbamoyl)pyridin-2-yl)-N-((5-(3,3-dimethylureido)pyridin-2-yl)methyl)-1-isopropyl-7-(trifluoromethyl)-4,5,6,7-tetrahydro-1H-pyrazolo[4,3-c]pyridine-3-carboxamide] | 8.22 | 9.00 |
| CCC1CN(c2ccc(C(=O)N(C)C)cn2)Cc2c(C(=O)NCc3ccc(NC(=O)N(C)C)cc3)nc(C)n21 (racemic) [Example 130, rac-(R)-7-(5-(dimethylcarbamoyl)pyridin-2-yl)-N-(4-(3,3-dimethylureido)benzyl)-5-ethyl-3-methyl-5,6,7,8-tetrahydroimidazo[1,5-a]pyrazine-1-carboxamide] | 7.11 | 7.64 |
| CC(C)n1nc(C(=O)NCc2ccc(NC(=O)NCC3CCOC3)cc2)c2c1CCN(c1ccc(C(=O)N(C)C)cn1)C2 (racemic) [Example 155, rac-(R)-5-(5-(dimethylcarbamoyl)pyridin-2-yl)-1-isopropyl-N-(4-(3-((tetrahydrofuran-3-yl)methyl)ureido)benzyl)-4,5,6,7-tetrahydro-1H-pyrazolo[4,3-c]pyridine-3-carboxamide] | 6.85 | 7.92 |
| CC(C)n1nc(C(=O)NCc2ccc(NC(=O)N3CCC(C)(O)C3)cc2)c2c1CCN(c1ccc(C(=O)N(C)C)cn1)C2 (racemic) [Example 160, rac-(R)-5-(5-(dimethylcarbamoyl)pyridin-2-yl)-N-(4-(3-hydroxy-3-methylpyrrolidine-1-carboxamido)benzyl)-1-isopropyl-4,5,6,7-tetrahydro-1H-pyrazolo[4,3-c]pyridine-3-carboxamide] | 7.68 | 7.82 |
